Reference: ChEMBL document CHEMBL3120056 (Eur J Med Chem, 2014)
Calls of active or inactive are those of the source. The rule behind the calls is not given here.

Columns and labels:
Format in all cases: cell-based
[1] = biological target: T1, Somatostatin receptor type 2 (Homo sapiens, UniProt P30874); assay: Agonist activity at T7-epitope-tagged human SST2A receptor expressed in HEK293 cells assessed as stimulation of receptor internalization at 1 uM after 30 mins by immunofluorescence microscopic analysis
T1 sequence (P30874 whole entry): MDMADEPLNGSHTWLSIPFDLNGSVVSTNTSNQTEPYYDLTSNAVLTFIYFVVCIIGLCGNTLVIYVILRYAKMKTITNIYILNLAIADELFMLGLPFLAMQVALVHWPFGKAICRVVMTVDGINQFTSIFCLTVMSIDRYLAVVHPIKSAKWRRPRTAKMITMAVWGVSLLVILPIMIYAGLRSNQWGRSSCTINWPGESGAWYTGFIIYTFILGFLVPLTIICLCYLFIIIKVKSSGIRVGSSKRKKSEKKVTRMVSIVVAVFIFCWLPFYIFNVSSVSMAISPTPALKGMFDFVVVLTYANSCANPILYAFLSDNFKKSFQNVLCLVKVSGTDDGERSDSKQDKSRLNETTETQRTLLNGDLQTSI

[2] = biological target: Somatostatin receptor type 5 (Homo sapiens, UniProt P35346); assay: Displacement of [125I]-[LTT]-SS28 from human SST5 receptor expressed in HEK293 cells after 2 hrs by autoradiographic analysis
Sequence of Somatostatin receptor type 5 (P35346 whole entry): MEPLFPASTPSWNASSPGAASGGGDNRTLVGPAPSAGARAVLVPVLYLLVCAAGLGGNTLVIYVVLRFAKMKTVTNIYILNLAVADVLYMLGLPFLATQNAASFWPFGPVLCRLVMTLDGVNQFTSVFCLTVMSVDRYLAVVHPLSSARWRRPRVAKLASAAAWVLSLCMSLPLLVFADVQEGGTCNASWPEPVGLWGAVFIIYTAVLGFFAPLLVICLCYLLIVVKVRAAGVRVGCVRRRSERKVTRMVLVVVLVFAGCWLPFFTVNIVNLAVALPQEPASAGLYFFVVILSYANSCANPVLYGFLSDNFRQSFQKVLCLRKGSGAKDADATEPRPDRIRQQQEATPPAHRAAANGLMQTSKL

[3] = biological target: Somatostatin receptor type 4 (Homo sapiens, UniProt P31391); assay: Displacement of [125I]-[LTT]-SS28 from human SST4 receptor expressed in Chinese hamster CCL-39 cells after 2 hrs by autoradiographic analysis
Sequence of Somatostatin receptor type 4 (P31391 whole entry): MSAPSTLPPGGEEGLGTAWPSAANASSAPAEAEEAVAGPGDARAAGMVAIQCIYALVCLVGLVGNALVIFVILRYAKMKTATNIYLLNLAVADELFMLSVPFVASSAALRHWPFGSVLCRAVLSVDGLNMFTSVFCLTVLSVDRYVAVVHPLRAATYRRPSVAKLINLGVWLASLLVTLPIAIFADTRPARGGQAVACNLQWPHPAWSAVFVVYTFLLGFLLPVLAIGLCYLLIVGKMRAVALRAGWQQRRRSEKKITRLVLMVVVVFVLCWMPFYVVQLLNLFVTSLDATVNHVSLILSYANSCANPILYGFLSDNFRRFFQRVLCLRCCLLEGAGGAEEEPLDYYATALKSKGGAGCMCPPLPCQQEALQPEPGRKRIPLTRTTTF

[4] = biological target: Somatostatin receptor type 3 (Homo sapiens, UniProt P32745); assay: Displacement of [125I]-[LTT]-SS28 from human SST3 receptor expressed in Chinese hamster CCL-39 cells after 2 hrs by autoradiographic analysis
Sequence of Somatostatin receptor type 3 (P32745 whole entry): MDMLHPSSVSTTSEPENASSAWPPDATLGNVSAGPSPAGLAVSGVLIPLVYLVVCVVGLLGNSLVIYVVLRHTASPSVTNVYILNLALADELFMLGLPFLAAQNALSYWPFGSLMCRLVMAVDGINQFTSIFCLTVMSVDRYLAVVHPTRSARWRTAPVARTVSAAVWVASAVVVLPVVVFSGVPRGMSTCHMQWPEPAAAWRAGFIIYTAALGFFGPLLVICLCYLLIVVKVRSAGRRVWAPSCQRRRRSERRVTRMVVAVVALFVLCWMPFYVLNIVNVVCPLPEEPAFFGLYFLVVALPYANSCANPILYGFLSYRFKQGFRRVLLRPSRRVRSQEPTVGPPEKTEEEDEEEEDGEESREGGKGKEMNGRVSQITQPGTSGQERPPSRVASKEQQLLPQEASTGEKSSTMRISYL

[5] = biological target: T1, Somatostatin receptor type 2; assay: Displacement of [125I]-[LTT]-SS28 from human SST2 receptor expressed in Chinese hamster CCL-39 cells after 2 hrs by autoradiographic analysis
[6] = biological target: Somatostatin receptor type 1 (Homo sapiens, UniProt P30872); assay: Displacement of [125I]-[LTT]-SS28 from human SST1 receptor expressed in CHO cells after 2 hrs by autoradiographic analysis
Sequence of Somatostatin receptor type 1 (P30872 whole entry): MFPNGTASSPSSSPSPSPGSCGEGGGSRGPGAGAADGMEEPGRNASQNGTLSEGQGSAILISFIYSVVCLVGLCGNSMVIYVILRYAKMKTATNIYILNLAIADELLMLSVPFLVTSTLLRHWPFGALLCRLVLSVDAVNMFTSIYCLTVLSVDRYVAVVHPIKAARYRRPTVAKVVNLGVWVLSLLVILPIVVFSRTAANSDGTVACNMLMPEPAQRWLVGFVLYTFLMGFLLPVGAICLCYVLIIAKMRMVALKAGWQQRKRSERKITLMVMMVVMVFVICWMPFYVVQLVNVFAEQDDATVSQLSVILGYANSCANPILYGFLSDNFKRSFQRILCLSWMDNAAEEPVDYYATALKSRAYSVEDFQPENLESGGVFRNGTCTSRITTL

| Activity [1] | IC50 [2] | IC50 [3] | IC50 [4] | IC50 [5] | IC50 [6] | Structure (SMILES) |
| --- | --- | --- | --- | --- | --- | --- |
| Active | 16 nM | 0.9 nM | 24 nM | 0.76 nM | 171 nM | C[C@@H](O)[C@@H]1NC(=O)[C@H](CCCCN)NC(=O)[C@@H](Cc2c[nH]c3ccccc23)NC(=O)[C@H](Cc2ccccc2)NC(=O)[C@H](Cc2ccccc2)NC(=O)[C@@H](NC(=O)[C@H](CCCNC(=N)N)NC(=O)COCCOCCNC(=O)CN2CCN(CC(=O)O)CCN(CC(=O)O)CCN(CC(=O)O)CC2)CSSC[C@@H](C(=O)O)NC(=O)[C@H](CO)NC(=O)[C@H](Cc2ccccc2)NC1=O |
| inactive | 37 nM | 5.4 nM | 98 nM | 50 nM | 18 nM | CCCC[C@H](NC(=O)CNC(=O)[C@H](C)NC(=O)CN1CCN(CC(=O)O)CCN(CC(=O)O)CCN(CC(=O)O)CC1)C(=O)N[C@@H](CCCCN)C(=O)N[C@@H]1CSSC[C@@H](C(=O)N[C@@H](CO)C(=O)NCC(=O)O)NC(=O)[C@H](Cc2ccccc2)NC(=O)[C@H]([C@@H](C)O)NC(=O)[C@H](CCCCN)NC(=O)[C@@H](Cc2c[nH]c3ccccc23)NC(=O)[C@H](Cc2ccccc2)NC(=O)[C@H](Cc2ccccc2)NC1=O |
| inactive | > 1000 nM | > 1000 nM | > 1000 nM | > 1000 nM | > 1000 nM | CCCC[C@H](NC(=O)CNC(=O)[C@H](C)NC(=O)CN1CCN(CC(=O)O)CCN(CC(=O)O)CCN(CC(=O)O)CC1)C(=O)N[C@@H](CCCCN)C(=O)N[C@@H](CC(N)=O)C(=O)N[C@H]1CSSC[C@@H](C(=O)N[C@H](C(=O)N[C@@H](CO)C(=O)NCC(=O)O)[C@@H](C)O)NC(=O)[C@H]([C@@H](C)O)NC(=O)[C@H](CCCCN)NC(=O)[C@@H](Cc2c[nH]c3ccccc23)NC(=O)[C@H](Cc2ccccc2)NC1=O |
| Active | 25 nM | 2.8 nM | 16 nM | 1.6 nM | 38 nM | C[C@H](NC(=O)CN1CCN(CC(=O)O)CCN(CC(=O)O)CCN(CC(=O)O)CC1)C(=O)NCC(=O)N[C@H]1CSSC[C@H](C(=O)O)NC(=O)[C@H](CO)NC(=O)[C@H]([C@@H](C)O)NC(=O)[C@H](Cc2ccccc2)NC(=O)[C@H]([C@@H](C)O)NC(=O)[C@H](CCCCN)NC(=O)[C@@H](Cc2c[nH]c3ccccc23)NC(=O)[C@H](Cc2ccccc2)NC(=O)[C@H](Cc2ccccc2)NC(=O)[C@H](CC(N)=O)NC(=O)[C@H](CCCNC(=N)N)NC1=O |
| inactive | > 1000 nM | > 1000 nM | > 1000 nM | 946 nM | > 1000 nM | CCCC[C@H](NC(=O)CNC(=O)[C@H](C)NC(=O)CN1CCN(CC(=O)O)CCN(CC(=O)O)CCN(CC(=O)O)CC1)C(=O)N[C@@H](CCCCN)C(=O)N[C@@H](CC(N)=O)C(=O)N[C@H]1CSSC[C@@H](C(=O)N[C@H](C(=O)N[C@@H](CO)C(=O)NCC(=O)O)[C@@H](C)O)NC(=O)[C@H]([C@@H](C)O)NC(=O)[C@H](CCCCN)NC(=O)[C@@H](Cc2c[nH]c3ccccc23)NC(=O)[C@H](Cc2ccc(O)cc2)NC1=O |
| Active | 58 nM | 1.2 nM | 18 nM | 1 nM | 795 nM | C[C@@H](O)[C@@H]1NC(=O)[C@H](CCCCN)NC(=O)[C@@H](Cc2c[nH]c3ccccc23)NC(=O)[C@H](Cc2ccccc2)NC(=O)[C@H](Cc2ccccc2)NC(=O)[C@@H](NC(=O)CNC(=O)COCCOCCNC(=O)CN2CCN(CC(=O)O)CCN(CC(=O)O)CCN(CC(=O)O)CC2)CSSC[C@@H](C(=O)O)NC(=O)[C@H](CO)NC(=O)[C@H](Cc2ccccc2)NC1=O |
| Active | 50 nM | 4 nM | 16 nM | 11 nM | 33 nM | CCCC[C@H](NC(=O)CNC(=O)[C@H](C)NC(=O)CN1CCN(CC(=O)O)CCN(CC(=O)O)CCN(CC(=O)O)CC1)C(=O)N[C@@H](CCCCN)C(=O)N[C@H]1CSSC[C@@H](C(=O)N[C@@H](CO)C(=O)NCC(=O)O)NC(=O)[C@H](Cc2ccccc2)NC(=O)[C@H]([C@@H](C)O)NC(=O)[C@H](CCCCN)NC(=O)[C@@H](Cc2c[nH]c3ccccc23)NC(=O)[C@H](Cc2ccccc2)NC(=O)[C@H](Cc2ccccc2)NC1=O |
